What all share (assay type): cell-based
The target in one assay is T1, M4 muscarinic receptor (Homo sapiens, UniProt P08173).
T1 construct: expressed in transfected cells; host or cells: CHO (M4-CHO)
T1 sequence (P08173 1-479): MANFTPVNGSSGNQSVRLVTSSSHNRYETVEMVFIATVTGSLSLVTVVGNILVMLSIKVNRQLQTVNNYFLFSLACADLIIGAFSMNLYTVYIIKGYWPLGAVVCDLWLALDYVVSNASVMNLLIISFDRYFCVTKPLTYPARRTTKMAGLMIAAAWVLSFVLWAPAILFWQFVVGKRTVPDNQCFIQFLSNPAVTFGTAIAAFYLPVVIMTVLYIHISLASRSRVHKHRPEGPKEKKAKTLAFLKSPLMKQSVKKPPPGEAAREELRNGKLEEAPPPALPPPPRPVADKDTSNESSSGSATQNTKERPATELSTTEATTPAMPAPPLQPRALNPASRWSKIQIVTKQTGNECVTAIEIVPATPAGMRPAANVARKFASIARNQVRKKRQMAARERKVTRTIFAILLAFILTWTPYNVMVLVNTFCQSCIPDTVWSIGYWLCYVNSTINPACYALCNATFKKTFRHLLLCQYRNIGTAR
Put plainly: Functional mobilization of intracellular calcium (FLIPR), M4-CHO cells. The following applies: for Emax: 100% efficacy = maximum response obtained with the Carbachol control; for M4 Activity: M4-CHO cells, calcium mobilization (FLIPR). The gist of the method:
(§1)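 CHO cells expressing human M1–M4 receptors loaded with Fluo-3 AM or Calcium 3 dye (1 mM probenecid, pH 7.4); 0.5% DMSO final. Agonist mode: compound added directly; antagonist mode: 15 min pre-incubation or co-application, then carbachol at EC80. Fluorescence read 60 s on FLIPR; efficacy relative to carbachol maximum.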
A general note: Calcium assays in cells follow changes in intracellular calcium, usually with a dye or a luminescent sensor.

For a further assay, the target named is T2, M1 muscarinic receptor (Homo sapiens, UniProt P11229).
T2 construct: expressed in transfected cells; host or cells: CHO (M1-CHO)
T2 sequence (P11229 1-460): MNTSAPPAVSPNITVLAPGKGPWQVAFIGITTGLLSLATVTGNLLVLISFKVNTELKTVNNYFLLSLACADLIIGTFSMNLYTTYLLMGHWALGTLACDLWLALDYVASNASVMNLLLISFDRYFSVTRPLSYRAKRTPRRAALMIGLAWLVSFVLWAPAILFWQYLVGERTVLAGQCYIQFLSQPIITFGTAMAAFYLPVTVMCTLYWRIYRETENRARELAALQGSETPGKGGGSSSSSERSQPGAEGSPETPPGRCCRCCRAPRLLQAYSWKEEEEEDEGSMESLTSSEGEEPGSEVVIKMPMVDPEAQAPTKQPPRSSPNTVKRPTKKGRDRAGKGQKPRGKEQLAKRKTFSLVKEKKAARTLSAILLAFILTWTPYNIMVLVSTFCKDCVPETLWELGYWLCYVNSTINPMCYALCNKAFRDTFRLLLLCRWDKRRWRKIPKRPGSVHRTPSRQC
Put plainly: Functional mobilization of intracellular calcium (FLIPR), M1-CHO cells. The settings on record: for Emax: 100% efficacy = maximum response obtained with the Carbachol control; for M1 Activity: M1-CHO cells, calcium mobilization (FLIPR). The procedure, abridged:
as §1

The target in another assay is T3, M3 muscarinic receptor (Homo sapiens, UniProt P20309).
T3 construct: expressed in transfected cells; host or cells: CHO (M3-CHO)
Put plainly: Functional mobilization of intracellular calcium (FLIPR), M3-CHO cells. The settings on record: for Emax: 100% efficacy = maximum response obtained with the Carbachol control; for M3 Activity: M3-CHO cells, calcium mobilization (FLIPR). The gist of the method:
as §1

In the next assay the target is T4, M2 muscarinic receptor (Homo sapiens, UniProt P08172).
T4 construct: expressed in transfected cells; host or cells: CHO (M2-CHO)
T4 sequence (P08172 1-466): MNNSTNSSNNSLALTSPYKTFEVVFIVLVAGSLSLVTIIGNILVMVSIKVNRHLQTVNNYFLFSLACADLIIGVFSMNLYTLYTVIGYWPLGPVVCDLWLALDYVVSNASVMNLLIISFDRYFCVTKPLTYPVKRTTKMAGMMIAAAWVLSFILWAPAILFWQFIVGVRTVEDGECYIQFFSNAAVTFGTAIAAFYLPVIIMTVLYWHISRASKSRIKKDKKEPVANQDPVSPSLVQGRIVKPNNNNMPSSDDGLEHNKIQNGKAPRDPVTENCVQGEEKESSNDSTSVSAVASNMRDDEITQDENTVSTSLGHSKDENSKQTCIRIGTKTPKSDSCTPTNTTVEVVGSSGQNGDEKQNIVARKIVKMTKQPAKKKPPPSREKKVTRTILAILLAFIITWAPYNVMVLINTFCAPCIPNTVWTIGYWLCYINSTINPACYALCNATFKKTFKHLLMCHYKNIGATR
The assay is described as follows: Functional mobilization of intracellular calcium (FLIPR), M2-CHO cells. The settings on record: for Emax: 100% efficacy = maximum response obtained with the Carbachol control; for M2 Activity: M2-CHO cells, calcium mobilization (FLIPR). The procedure, abridged:
as §1

For orientation: Emax means the size of the effect at its maximum, as opposed to the concentration needed.

The structures appear in SMILES notation.

T3 sequence (P20309 whole entry): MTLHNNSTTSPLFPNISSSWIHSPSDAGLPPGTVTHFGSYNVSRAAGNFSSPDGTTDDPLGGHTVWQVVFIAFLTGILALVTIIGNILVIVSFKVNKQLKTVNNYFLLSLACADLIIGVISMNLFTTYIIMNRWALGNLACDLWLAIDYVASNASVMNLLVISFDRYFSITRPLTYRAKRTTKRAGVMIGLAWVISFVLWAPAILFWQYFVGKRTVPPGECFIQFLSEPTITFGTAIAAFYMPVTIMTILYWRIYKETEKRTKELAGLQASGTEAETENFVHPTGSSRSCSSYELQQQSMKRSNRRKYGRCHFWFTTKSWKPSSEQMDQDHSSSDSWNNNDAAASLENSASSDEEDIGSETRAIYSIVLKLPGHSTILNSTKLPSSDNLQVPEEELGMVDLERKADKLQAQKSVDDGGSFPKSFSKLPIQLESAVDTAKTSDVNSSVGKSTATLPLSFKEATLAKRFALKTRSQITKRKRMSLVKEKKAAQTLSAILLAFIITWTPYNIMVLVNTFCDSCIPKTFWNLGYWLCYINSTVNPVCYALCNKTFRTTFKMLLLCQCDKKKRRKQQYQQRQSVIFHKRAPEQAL

Regarding `COc1ccc(-c2ccncc2)cc1C1CCN([C@@H]2C[C@@H]3CC[C@H]2C3)CC1` [Compound 124, 4-(3-(1-((1S,2R,4R)-bicyclo[2.2.1]heptan-2-yl)piperidin-4-yl)-4-methoxyphenyl) pyridine], at M4 muscarinic receptor, the maximum response (Emax) was < 25% and the “M4 Activity” value was “+ (activity was measured to be greater than 5.0 μM)”. For the same compound, at M1 muscarinic receptor, the Emax is < 25% and the “M1 Activity” value is on record as “+ (activity was measured to be greater than 5.0 μM)”. Further, at M3 muscarinic receptor, the Emax is < 25% and the “M3 Activity” value is recorded as “+ (activity was measured to be greater than 5.0 μM)”. At M2 muscarinic receptor, the Emax was < 25% and the “M2 Activity” value is “+ (activity was measured to be greater than 5.0 μM)”.

Consider `COc1ccc(-c2ccccc2F)cc1C1CCN([C@H]2C[C@H]3CC[C@H]2C3)CC1` [Compound 216], for which, on M4 muscarinic receptor, the Emax was 25 to 100% and the “M4 Activity” value was “+ (activity was measured to be greater than 5.0 μM)”. At M1 muscarinic receptor, the Emax is < 25% and the “M1 Activity” value was “+ (activity was measured to be greater than 5.0 μM)”. Besides, at M3 muscarinic receptor, the Emax is < 25% and the “M3 Activity” value is on record as “+ (activity was measured to be greater than 5.0 μM)”. Moreover, on M2 muscarinic receptor, the Emax was < 25% and the “M2 Activity” value is listed as “+ (activity was measured to be greater than 5.0 μM)”.

Turning to `CCOC(=O)N1CCC(CN2CCC(c3cc(F)cc(F)c3OC)CC2)CC1` [Compound 65], on M4 muscarinic receptor, the Emax is 25 to 100% and the “M4 Activity” value is “+++ (activity was measured to be less than 1.0 μM)”. Also, on M1 muscarinic receptor, the Emax was 25 to 100% and the “M1 Activity” value was “+++ (activity was measured to be less than 1.0 μM)”. On M3 muscarinic receptor, the maximal response (Emax) is < 25% and the “M3 Activity” value is reported as “+ (activity was measured to be greater than 5.0 μM)”. In addition, on M2 muscarinic receptor, the Emax is < 25% and the “M2 Activity” value is reported as “+ (activity was measured to be greater than 5.0 μM)”.

Regarding `Cc1ccccc1C1CCN(C2CC3CCC2C3)CC1` (stereo not drawn) [Compound 180], on M4 muscarinic receptor, the Emax was in the range of 25 to 100% and the “M4 Activity” value was “+++ (activity was measured to be less than 1.0 μM)”. Also, on M1 muscarinic receptor, the Emax lay in the range of 25 to 100% and the “M1 Activity” value is listed as “++ (activity was measured to be from 1.0 μM to 5.0 μM)”. Besides, at M3 muscarinic receptor, the Emax was < 25% and the “M3 Activity” value was “+ (activity was measured to be greater than 5.0 μM)”. In addition, on M2 muscarinic receptor, the Emax is < 25% and the “M2 Activity” value is “+ (activity was measured to be greater than 5.0 μM)”.

Turning to `COc1ccccc1C1(O)CCN([C@H]2C[C@H]3CC[C@H]2C3)CC1O` (stereo partly drawn) [Compound 197], on M4 muscarinic receptor, the Emax was in the range of 25 to 100% and the “M4 Activity” value was “+ (activity was measured to be greater than 5.0 μM)”. In addition, at M1 muscarinic receptor, the Emax was < 25% and the “M1 Activity” value is recorded as “+ (activity was measured to be greater than 5.0 μM)”. On M3 muscarinic receptor, the Emax is < 25% and the “M3 Activity” value was “+ (activity was measured to be greater than 5.0 μM)”. Also, at M2 muscarinic receptor, the Emax is < 25% and the “M2 Activity” value was “+ (activity was measured to be greater than 5.0 μM)”.

As for `Cc1ccccc1-c1ccccc1C1CCN([C@H]2C[C@H]3CC[C@H]2C3)CC1` [Compound 302], at M4 muscarinic receptor, the Emax fell in the range of 25 to 100% and the “M4 Activity” value is listed as “++ (activity was measured to be from 1.0 μM to 5.0 μM)”. Moreover, on M1 muscarinic receptor, the Emax is < 25% and the “M1 Activity” value was “+ (activity was measured to be greater than 5.0 μM)”. Further, at M3 muscarinic receptor, the Emax was < 25% and the “M3 Activity” value was “+ (activity was measured to be greater than 5.0 μM)”. For the same compound, on M2 muscarinic receptor, the Emax was < 25% and the “M2 Activity” value is “+ (activity was measured to be greater than 5.0 μM)”.

The values are drawn from patent publication US7880007B2, “Bicyclic substituted phenyl piperidine modulators of muscarinic receptors” (Vertex Pharmaceuticals Incorporated, priority 2004, dated 2011).
